Assay results reported in US11554171B2, “Compounds and methods for the targeted degradation of bromodomain-containing proteins” (Arvinas Operations, Inc., priority 2015, dated 2023).

System: c-myc in 22RV-1 cells
Assay: Human c-myc ELISA assay
Type: cell-based
Settings: Homo sapiens; for Emax: 22Rv1, 18 h, read-out: Degradation of BRD4: Maximum inhibition (%) c-Myc ELISA in 22RV1 cells; for DC50: 22Rv1, read-out: Degradation of BRD4: DC50 (uM) c-Myc ELISA in 22RV1 cells
In short: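 c-myc levels measured by ELISA in RIPA lysates of 22RV-1 cells, calibrated with a 333-0 pg/ml standard curve. Lysates came from cells exposed for 18 h to an 8-point, 1:3 dose series starting at 300 nM or 1 μM final in 0.1% DMSO. Suppression potency given as DC50.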

SMILES: Cc1ncsc1-c1ccc([C@H](C)NC(=O)[C@@H]2C[C@@H](O)CN2C(=O)[C@@H](NC(=O)c2ccc(OCCCNC(=O)C[C@@H]3N=C(c4ccc(Cl)cc4)c4c(sc(C)c4C)-n4c(C)nnc43)cc2)C(C)(C)C)cc1 [Example 132, (2S,4R)-1-[(2S)-2-{[4-(3-{2-[(9S)-7-(4-chlorophenyl)-4,5,13-trimethyl-3-thia-1,8,11,12-tetraazatricyclo[8.3.0.0^2,^6]trideca-2(6),4,7,10,12-pentaen-9-yl]acetamido}propoxy)phenyl]formamido}-3,3-dimethylbutanoyl]-4-hydroxy-N-[(1S)-1-[4-(4-methyl-1,3-thiazol-5-yl)phenyl]ethyl]pyrrolidine-2-carboxamide]
- Emax: 99%
- DC50: < 0.01 µM

SMILES: Cc1ncsc1-c1ccc(CNC(=O)[C@@H]2C[C@@H](O)CN2C(=O)[C@@H](NC(=O)COCCCCCCNC(=O)C[C@@H]2N=C(c3ccc(Cl)cc3)c3c(sc(C)c3C)-n3c(C)nnc32)C(C)(C)C)cc1 [Example 82]
- Emax: 100%
- DC50: 0.01 to 0.1 µM

SMILES: Cc1ncsc1-c1ccc([C@H](C)NC(=O)[C@@H]2C[C@@H](O)CN2C(=O)[C@H](C(C)C)n2cc(-c3cnc(O[C@H]4C[C@H](NC(=O)C[C@@H]5N=C(c6ccc(Cl)cc6)c6c(sc(C)c6C)-n6c(C)nnc65)C4)cn3)cn2)cc1 [Example 284]
- Emax: 93.4%
- DC50: < 0.01 µM

SMILES: CC(=O)N[C@H](C(=O)N1C[C@H](O)C[C@H]1C(=O)NCc1ccc(-c2scnc2C)cc1OCCCOc1ccc(C2=N[C@@H](CC(=O)Nc3ccccc3)c3nnc(C)n3-c3sc(C)c(C)c32)cc1)C(C)(C)C [Example 155]
- Emax: 65.5%
- DC50: 0.1 to 1 µM

SMILES: Cc1ncsc1-c1ccc([C@H](C)NC(=O)[C@@H]2C[C@@H](O)CN2C(=O)[C@@H](NC(=O)COc2ccnc(N3CCN(C(=O)C[C@@H]4N=C(c5ccc(Cl)cc5)c5c(sc(C)c5C)-n5c(C)nnc54)CC3)n2)C(C)(C)C)cc1 [Example 330]
- Emax: 89%
- DC50: 0.01 to 0.1 µM

SMILES: Cc1ncsc1-c1ccc(CNC(=O)[C@@H]2C[C@@H](O)CN2C(=O)[C@@H](NC(=O)COCCCCCOc2cccc(NC(=O)C[C@@H]3N=C(c4ccc(Cl)cc4)c4c(sc(C)c4C)-n4c(C)nnc43)c2)C(C)(C)C)cc1 [Example 125]
- Emax: 99.5%
- DC50: < 0.01 µM

SMILES: Cc1ncsc1-c1ccc(CNC(=O)[C@@H]2C[C@@H](O)CN2C(=O)[C@@H](NC(=O)COCCO[C@H]2C[C@@H](NC(=O)C[C@@H]3N=C(c4ccc(Cl)cc4)c4c(sc(C)c4C)-n4c(C)nnc43)C2)C(C)(C)C)cc1 [Example 138]
- Emax: 89.4%
- DC50: 0.1 to 1 µM

SMILES: Cc1ncsc1-c1ccc(CNC(=O)[C@@H]2C[C@@H](O)CN2C(=O)[C@@H](NC(=O)COCC#CC#CCOc2ccc([C@@H](C)NC(=O)C[C@@H]3N=C(c4ccc(Cl)cc4)c4c(sc(C)c4C)-n4c(C)nnc43)cc2)C(C)(C)C)cc1 [Example 43, (2S,4R)-1-[(2S)-2-{2-[(6-{4-[(1R)-1-{2-[(9S)-7-(4-chlorophenyl)-4,5,13-trimethyl-3-thia-1,8,11,12-tetraazatricyclo[8.3.0.0^2,^6]trideca-2(6),4,7,10,12-pentaen-9-yl]acetamido}ethyl]phenoxy}hexa-2,4-diyn-1-yl)oxy]acetamido}-3,3-dimethylbutanoyl]-4-hydroxy-N-{[4-(4-methyl-1,3-thiazol-5-yl)phenyl]methyl}pyrrolidine-2-carboxamide]
- Emax: 100%
- DC50: 0.01 to 0.1 µM

SMILES: Cc1ncsc1-c1ccc(CNC(=O)[C@@H]2C[C@@H](O)CN2C(=O)[C@H](C(C)C)N2Cc3ccccc3C2=O)c(OCCOCCOCCOCCNC(=O)C[C@@H]2N=C(c3ccc(Cl)cc3)c3c(sc(C)c3C)-n3c(C)nnc32)c1 [Example 1, (2S,4R)-N-{[2-(2-{2-[2-(2-{2-[(9S)-7-(4-chlorophenyl)-4,5,13-trimethyl-3-thia-1,8,11,12-tetraazatricyclo[8.3.0.0^2,^6]trideca-2(6),4,7,10,12-pentaen-9-yl]acetamido}ethoxy)ethoxy]ethoxy}ethoxy)-4-(4-methyl-1,3-thiazol-5-yl)phenyl]methyl}-4-hydroxy-1-[(2S)-3-methyl-2-(1-oxo-2,3-dihydro-1H-isoindol-2-yl)butanoyl]pyrrolidine-2-carboxamide]
- Emax: 100%
- DC50: 0.1 to 1 µM

SMILES: Cc1ncsc1-c1ccc(CNC(=O)[C@@H]2C[C@@H](O)CN2C(=O)[C@@H](NC(=O)COCCCOCCCOc2ccc(NC(=O)C[C@@H]3N=C(c4ccc(Cl)cc4)c4c(sc(C)c4C)-n4c(C)nnc43)nc2)C(C)(C)C)cc1 [Example 28]
- Emax: 100%
- DC50: 0.01 to 0.1 µM

SMILES: Cc1ncsc1-c1ccc(CNC(=O)[C@@H]2C[C@@H](O)CN2C(=O)[C@@H](NC(=O)COCCCOCCCOc2ccc(C(C)(C)NC(=O)C[C@@H]3N=C(c4ccc(Cl)cc4)c4c(sc(C)c4C)-n4c(C)nnc43)cc2)C(C)(C)C)cc1 [Example 37]
- Emax: 96%
- DC50: 0.01 to 0.1 µM

SMILES: Cc1ncsc1-c1ccc(CNC(=O)C2C[C@@H](O)CN2C(=O)[C@@H](NC(=O)COCCOCCOCCOCCOc2ccc3c(c2)c2c(C(N)=O)cc(-c4c(C)noc4C)cc2n3Cc2ccccc2)C(C)(C)C)cc1 (stereo partly drawn) [Example 89, 9-Benzyl-2-(dimethyl-1,2-oxazol-4-yl)-6{[1-({1-[4-hydroxy-2-({[4-(4-methyl-1,3-thiazol-5-yl)phenyl]methyl}carbamoyl)pyrrolidin-1-yl]-3,3-dimethyl-1-oxobutan-2-yl}carbamoyl)-2,5,8,11-tetraoxatridecan-13-yl]oxy}-9H-carbazole-4-carboxamide]
- Emax: 99.5%
- DC50: 0.01 to 0.1 µM

SMILES: Cc1ncsc1-c1ccc([C@H](C)NC(=O)[C@@H]2C[C@@H](O)CN2C(=O)[C@@H](NC(=O)COc2ccnc(O[C@H]3C[C@@H](NC(=O)C[C@@H]4N=C(c5ccc(Cl)cc5)c5c(sc(C)c5C)-n5c(C)nnc54)C3)c2)C(C)(C)C)cc1 [Example 189]
- Emax: 95.9%
- DC50: 0.01 to 0.1 µM

SMILES: Cc1ncsc1-c1ccc(CNC(=O)[C@@H]2C[C@@H](O)CN2C(=O)[C@@H](NC(=O)COCCO[C@H]2C[C@H](NC(=O)C[C@@H]3N=C(c4ccc(Cl)cc4)c4c(sc(C)c4C)-n4c(C)nnc43)C2)C(C)(C)C)cc1 [Example 137]
- Emax: 86.9%
- DC50: 0.1 to 1 µM

SMILES: Cc1ncsc1-c1ccc(CNC(=O)[C@@H]2C[C@@H](O)CN2C(=O)[C@H](c2cc(OCCN3CC[C@@H](NC(=O)C[C@@H]4N=C(c5ccc(Cl)cc5)c5c(sc(C)c5C)-n5c(C)nnc54)C3)no2)C(C)C)cc1 (single isomer, unassigned) [Example 311]
- Emax: 43.6%
- DC50: > 1 µM

SMILES: Cc1ncsc1-c1ccc([C@H](C)NC(=O)[C@@H]2C[C@@H](O)CN2C(=O)[C@@H](NC(=O)CCc2cc(F)cc(OCCNC(=O)C[C@@H]3N=C(c4ccc(Cl)cc4)c4c(sc(C)c4C)-n4c(C)nnc43)c2)C(C)(C)C)cc1 [Example 150, (2S,4R)-1-[(2S)-2-{3-[3-(2-{2-[(9S)-7-(4-chlorophenyl)-4,5,13-trimethyl-3-thia-1,8,11,12-tetraazatricyclo[8.3.0.0^2,^6]trideca-2(6),4,7,10,12-pentaen-9-yl]acetamido}ethoxy)-5-fluorophenyl]propanamido}-3,3-dimethylbutanoyl]-4-hydroxy-N-[(1S)-1-[4-(4-methyl-1,3-thiazol-5-yl)phenyl]ethyl]pyrrolidine-2-carboxamide]
- Emax: 93.9%
- DC50: < 0.01 µM

SMILES: Cc1ncsc1-c1ccc(CNC(=O)[C@@H]2C[C@@H](O)CN2C(=O)[C@@H](NC(=O)COCCOCCOc2ccc(NC(=O)C[C@@H]3N=C(c4ccc(Cl)cc4)c4c(sc(C)c4C)-n4c(C)nnc43)cc2)C(C)(C)C)cc1 [Example 10, (2S,4R)-1-[(2S)-2-(2-{2-[2-(4-{2-[(9S)-7-(4-chlorophenyl)-4,5,13-trimethyl-3-thia-1,8,11,12-tetraazatricyclo[8.3.0.0^2,^6]trideca-2(6),4,7,10,12-pentaen-9-yl]acetamido}phenoxy)ethoxy]ethoxy}acetamido)-3,3-dimethylbutanoyl]-4-hydroxy-N-{[4-(4-methyl-1,3-thiazol-5-yl)phenyl]methyl}pyrrolidine-2-carboxamide]
- Emax: 100%
- DC50: 0.01 to 0.1 µM

SMILES: Cc1ncsc1-c1ccc([C@H](C)NC(=O)[C@H]2C[C@H](O)CN2C(=O)[C@@H](NC(=O)COCCCOCCNC(=O)C[C@@H]2N=C(c3ccc(Cl)cc3)c3c(sc(C)c3C)-n3c(C)nnc32)C(C)(C)C)cc1 [Example 72, (2R, 4S)-1-[(2S)-2-{2-[3-(2-{2-[(9S)-7-(4-chlorophenyl)-4,5,13-trimethyl-3-thia-1,8,11,12-tetraazatricyclo[8.3.0.0^2,^6]trideca-2(6),4,7,10,12-pentaen-9-yl]acetamido}ethoxy)propoxy]acetamido}-3,3-dimethylbutanoyl]-4-hydroxy-N-[(1S)-1-[4-(4-methyl-1,3-thiazol-5-yl)phenyl]ethyl]pyrrolidine-2-carboxamide]
- Emax: 10.2%
- DC50: > 1 µM

SMILES: Cc1ncsc1-c1ccc(CNC(=O)[C@@H]2C[C@@H](O)CN2C(=O)[C@@H](NC(=O)COc2ccccc2C(=O)N2CC[C@H](NC(=O)C[C@@H]3N=C(c4ccc(Cl)cc4)c4c(sc(C)c4C)-n4c(C)nnc43)C2)C(C)(C)C)cc1 [Example 87]
- Emax: 96.4%
- DC50: 0.01 to 0.1 µM

SMILES: Cc1ncsc1-c1ccc([C@H](C)NC(=O)[C@@H]2C[C@@H](O)CN2C(=O)[C@@H](n2cc(-c3ccnc(O[C@H]4C[C@@H](NC(=O)C[C@@H]5N=C(c6ccc(Cl)cc6)c6c(sc(C)c6C)-n6c(C)nnc65)C4)c3)cn2)C(C)(C)C)cc1 [Example 240]
- Emax: 97%
- DC50: < 0.01 µM

SMILES: Cc1ncsc1-c1ccc([C@H](C)NC(=O)[C@@H]2C[C@@H](O)CN2C(=O)[C@@H](NC(=O)[C@H]2CC[C@@H](COCCCNC(=O)C[C@@H]3N=C(c4ccc(Cl)cc4)c4c(sc(C)c4C)-n4c(C)nnc43)O2)C(C)(C)C)cc1 [Example 187]
- Emax: 98.5%
- DC50: 0.01 to 0.1 µM
